Structures are written as SMILES. Calls of active or inactive are those of the source. Cut-off read from the data, not from the text of the source, for most assays here: actives have a measured EC50 and inactives only a lower limit.

The subject of one assay is H9c2. The assay is described as follows: cells. To be noted: Rattus norvegicus, H9c2, Myocardium. Format: functional, cell-based.
The target in assay [1] is T1, Ubiquitin-conjugating enzyme E2 N (Homo sapiens, UniProt P61088).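 Note: Dose-response confirmation in a TR-FRET assay detecting UBC13-driven polyubiquitin chain formation, inhibition measured.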
T1 sequence (P61088 whole entry): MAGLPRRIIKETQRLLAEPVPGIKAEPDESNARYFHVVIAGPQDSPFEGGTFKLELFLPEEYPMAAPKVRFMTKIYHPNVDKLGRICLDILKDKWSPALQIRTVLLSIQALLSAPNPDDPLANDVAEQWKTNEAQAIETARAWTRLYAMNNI
Format: functional.

Assay [2] is described as follows: reduction of Shn3 3'UTR-driven luciferase in osteoblasts – cell-based, Clone20 osteoblasts, firefly luciferase, cherry-picked, dose response (AID 624132).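 Note: firefly luciferase luminescence from reporter carrying the Shn3 3'UTR in osteoblasts.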 Format: functional.
For assay [3], the target named is T2, Zinc finger protein mex-5 (Caenorhabditis elegans, UniProt Q9XUB2).
T2 sequence (Q9XUB2 whole entry): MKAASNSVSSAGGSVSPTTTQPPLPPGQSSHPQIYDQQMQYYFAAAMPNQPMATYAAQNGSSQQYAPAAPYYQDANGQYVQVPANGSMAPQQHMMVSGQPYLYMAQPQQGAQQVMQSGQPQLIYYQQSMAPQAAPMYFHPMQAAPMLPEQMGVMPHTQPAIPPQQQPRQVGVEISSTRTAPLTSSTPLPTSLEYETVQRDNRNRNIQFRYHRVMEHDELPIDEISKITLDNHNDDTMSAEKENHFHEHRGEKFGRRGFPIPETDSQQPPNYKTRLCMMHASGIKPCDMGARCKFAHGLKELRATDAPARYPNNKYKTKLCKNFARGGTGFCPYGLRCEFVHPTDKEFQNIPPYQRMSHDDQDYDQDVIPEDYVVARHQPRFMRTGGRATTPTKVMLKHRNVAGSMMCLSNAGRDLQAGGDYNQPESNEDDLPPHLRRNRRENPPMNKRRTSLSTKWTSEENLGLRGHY
The assay is described as follows: potency of MEX-5 RNA-binding blockers – biochemical, C. elegans, fluorescence polarization, dose response (AID 1960).

For assay [4], the target named is T3, RNA-binding protein pos-1 (Caenorhabditis elegans, UniProt G5EF15).
T3 sequence (G5EF15 whole entry): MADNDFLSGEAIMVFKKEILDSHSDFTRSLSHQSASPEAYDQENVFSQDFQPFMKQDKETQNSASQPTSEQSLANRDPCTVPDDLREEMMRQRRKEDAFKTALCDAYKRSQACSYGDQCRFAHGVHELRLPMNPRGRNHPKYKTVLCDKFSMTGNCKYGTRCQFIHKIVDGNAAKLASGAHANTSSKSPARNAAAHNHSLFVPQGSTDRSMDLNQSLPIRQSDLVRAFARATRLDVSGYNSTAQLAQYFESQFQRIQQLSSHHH
Nature of the assay: disruptors of C. elegans POS-1 RNA interaction – biochemical, fluorescence polarization, dose response (AID 1964).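 Note: purified POS-1 fused to maltose binding protein made in E. coli; potency of compounds blocking POS-1 binding to fluorescent RNA.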 In general terms: Polarisation of emitted light reports the rotation of a fluorescent probe.

Assay [5] has as its target T4, Heat shock factor protein 1 (Mus musculus, UniProt P38532).
T4 sequence (P38532 whole entry): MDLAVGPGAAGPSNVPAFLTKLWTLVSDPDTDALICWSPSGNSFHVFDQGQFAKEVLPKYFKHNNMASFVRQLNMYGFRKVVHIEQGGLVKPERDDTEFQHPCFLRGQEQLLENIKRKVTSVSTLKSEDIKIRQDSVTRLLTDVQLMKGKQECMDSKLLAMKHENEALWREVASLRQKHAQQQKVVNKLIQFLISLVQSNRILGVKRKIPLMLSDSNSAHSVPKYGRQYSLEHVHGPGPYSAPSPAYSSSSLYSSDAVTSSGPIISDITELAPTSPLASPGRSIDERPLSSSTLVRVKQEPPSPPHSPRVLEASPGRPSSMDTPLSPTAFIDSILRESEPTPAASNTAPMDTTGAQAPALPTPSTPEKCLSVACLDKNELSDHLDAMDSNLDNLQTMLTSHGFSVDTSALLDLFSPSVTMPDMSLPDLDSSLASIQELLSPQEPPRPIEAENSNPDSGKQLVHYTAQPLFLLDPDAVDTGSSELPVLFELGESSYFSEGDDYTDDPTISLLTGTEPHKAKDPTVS
The assay is described as follows: decrease of HSF1-responsive luciferase luminescence – cell-based, NIH3T3, dose retest, confirmation (AID 2382).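 Note: NIH3T3 fibroblasts with HSF1-driven luciferase reporter stressed by proteasome inhibitor MG132; luminescence from HSF1-driven luciferase expression after 8 hours of MG132 stress.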 Format: functional.

The subject of assay [6] is BJ. Nature of the assay: cells. To be noted: Homo sapiens. The assay is classed as functional, cell-based.
Assay [7] concerns BJ. The assay is described as follows: BJ-TERT fibroblast viability loss – cell-based, RAS-independent, luminescence, dose response (AID 1933). Format: functional. To be noted: Homo sapiens.
Assay [8] can be described thus: DRD fibroblast viability loss – cell-based, non-viral oncogenic, luminescence, dose response (AID 1934). Format: functional. Particulars: Homo sapiens.
Assay [9] can be described thus: Luminescence Cell-Based Dose Confirmation HTS to Identify Activators of 5'UTR Stem-Loop Driven Alpha-Synuclein mRNA Translation in H4 Neuroglioblastoma Cells. [Related pubchem assays: 1829 (Project Summary), 1814 (Primary HTS)]. Format: functional.
The test system of another assay is H4. Nature of the assay: Luminescence Cell-Based Dose Response HTS to Identify Activators of 5'UTR Stem-Loop Driven Prion Protein mRNA Translation in H4 Neuroglioblastoma Cells. [Related pubchem assays: 1829 (Project Summary), 1814 (Primary HTS)]. The assay is classed as functional. Particulars: Homo sapiens.
Assay [10] in a line: Luminescence Cell-Based Dose Response HTS to Identify Activators of Luciferase Translation or Activity in H4 […] Cells. [Related pubchem assays: 1829 (Project Summary), 1814 (Primary HTS)]. Format: functional.
Assay [11] has as its target Luciferin 4-monooxygenase (Photinus pyralis, UniProt P08659). The assay is described as follows: inhibition of purified Photinus pyralis luciferase – biochemical, luminescence, dose response (AID 1891).
A further assay deals with Streptococcus. The assay is described as follows: GAS UMAA2166 growth inhibition – luminescence, BacTiterGlo, counter-screen for streptokinase expression inhibitor project, dose response (AID 1915).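 Note: potency for reduction of bacterial viability or growth.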 The assay is classed as functional, organism-based.
Assay [12] has as its system Streptococcus sp. 'group A'. The assay is described as follows: Streptococcus pyogenes SK(-)GAS viability under kanamycin – luminescence, BacTiterGlo, confirmation, counter-screen for streptokinase expression inhibitor project, dose response (AID 1900). Format: functional, organism-based. In general terms: A counterscreen serves to expose hits that act by an unwanted route or on another target.

The target in the next assay is T5, Streptokinase A (Streptococcus pyogenes serotype M1, UniProt P10520).
T5 sequence (P10520 whole entry): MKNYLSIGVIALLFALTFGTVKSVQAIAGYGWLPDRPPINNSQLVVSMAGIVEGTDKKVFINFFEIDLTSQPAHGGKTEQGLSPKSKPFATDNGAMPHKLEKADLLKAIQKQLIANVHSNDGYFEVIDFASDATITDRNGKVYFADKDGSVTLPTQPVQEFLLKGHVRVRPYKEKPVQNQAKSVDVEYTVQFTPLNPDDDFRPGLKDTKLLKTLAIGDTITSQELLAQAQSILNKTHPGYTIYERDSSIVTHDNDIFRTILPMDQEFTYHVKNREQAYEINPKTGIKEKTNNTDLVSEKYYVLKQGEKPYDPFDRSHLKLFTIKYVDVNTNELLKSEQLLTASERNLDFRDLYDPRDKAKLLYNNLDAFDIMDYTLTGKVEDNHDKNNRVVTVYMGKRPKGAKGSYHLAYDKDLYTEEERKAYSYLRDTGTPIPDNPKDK
The assay is described as follows: viability-normalized secreted streptokinase activity reduction – plasminogen activation absorbance, OD405, dose response (AID 1914).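 Note: secreted streptokinase activity via plasminogen activation per viability signal from cell pellet.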 The assay is classed as functional, Streptococcus pyogenes M1 GAS.

Sequence of Luciferin 4-monooxygenase (P08659 whole entry): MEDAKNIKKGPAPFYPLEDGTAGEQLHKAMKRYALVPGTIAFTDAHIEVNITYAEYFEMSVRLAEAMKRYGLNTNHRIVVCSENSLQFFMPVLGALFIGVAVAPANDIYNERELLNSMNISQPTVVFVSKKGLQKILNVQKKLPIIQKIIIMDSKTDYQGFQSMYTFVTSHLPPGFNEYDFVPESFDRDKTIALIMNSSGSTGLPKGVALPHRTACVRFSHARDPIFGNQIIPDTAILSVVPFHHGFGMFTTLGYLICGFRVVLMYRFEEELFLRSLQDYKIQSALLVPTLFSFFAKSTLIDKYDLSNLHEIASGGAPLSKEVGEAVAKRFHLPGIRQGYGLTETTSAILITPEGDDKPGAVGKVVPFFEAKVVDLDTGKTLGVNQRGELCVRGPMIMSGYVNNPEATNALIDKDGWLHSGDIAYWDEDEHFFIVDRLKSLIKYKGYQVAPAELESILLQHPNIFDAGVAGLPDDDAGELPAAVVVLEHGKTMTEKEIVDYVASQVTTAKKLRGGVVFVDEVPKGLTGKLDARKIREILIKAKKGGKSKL

By IC50 is commonly meant the concentration needed to halve the response being measured. For the molecule `O=C(CSc1ccc2nnc(-c3ccc(F)cc3)n2n1)N1CCCc2ccccc21`, the IC50 in the assay with H9c2 was > 79 µM (inactive).
As for `CCNC(C(=O)c1c[nH]c2c(CC)cccc12)c1ccccc1` (centres undefined), in [1], the IC50 was > 20 µM (inactive).
For orientation: AC50 means the concentration giving half of the maximal activity seen. `Nc1nnc(SCC(=O)Nc2ccc(N3CCOCC3)cc2)s1`: in assay [2], the AC50 was 16.8 µM (active).
For `CN(C)CC(O)COc1ccc(C(C)(C)c2ccc(OCC(O)CN(C)C)cc2)cc1` (centres undefined), the IC50 in [1] is > 20 µM (inactive).
As a reminder, the EC50 is the concentration at which the effect is half-maximal. As for `COc1ccccc1N1C(=O)NC(=O)/C(=C\c2c[nH]c3ccccc23)C1=O`, the EC50 in [3] and in assay [4] was > 300 µM (not active) each time.
As to `CCN=C(S)N(C)CCc1cc2c(c(OC)c1C=C1C(=O)N(C)C(=O)N(C)C1=O)OCO2`, the EC50 in assay [3] is given as > 300 µM (not active); in [4] it was > 300 µM (not active); in assay [5], > 195 µM (not active).
With `Cc1c(O)ccc2c3c(c(=O)oc12)CCC(C)C3` (centres undefined), in the assay with H9c2, the IC50 is > 79 µM (inactive).
Regarding `CCCCn1c(-c2cccs2)nc2nc3ccccc3nc21`, the IC50 in [1] was > 20 µM (inactive).
As for `COc1ccc(CC(=O)N(C)CC(=O)Nc2ccccc2Cl)cc1S(=O)(=O)N1CCOCC1`, the IC50 in assay [1] was > 20 µM (inactive).
Turning to `CCSc1nnc(NC(=O)C2Cc3ccccc3CN2S(=O)(=O)CC)s1` (centres undefined), the IC50 in the assay on H9c2 is 10 µM (active).
Regarding `O=C(NN1C(=O)c2ccc3c4c(ccc(c24)C1=O)CC3)c1ccc(Br)cc1`, in assay [1], the IC50 is > 20 µM (inactive).
In the case of `CCc1ccc(/C=C2\SC(=S)N(CCC(=O)NCCCN3CCOCC3)C2=O)cc1`, the EC50 in the assay with BJ [6] is > 150 µM (not active); in the assay on BJ [7], 1.24 µM (active); in [8], 5.87 µM (active).
`CCOC(=O)c1c(NC(=O)Nc2ccc(F)cc2)sc2c1CCN(C)C2`: the EC50 in assay [3] was 39.8 µM (active); in [4], 27.7 µM (inconclusive).
For `CC(=O)N(C)c1ccc(N=NC2C(=O)N(C(N)=S)N=C2C)cc1` (centres undefined), the EC50 in assay [3] was 34.6 µM (active); in assay [4] it was > 300 µM (not active).
Take `COc1ccc(-c2cc3cc(OC)c(OC)cc3cn2)cc1OC`: the results for the EC50 (in assay [9]; with H4; in assay [10]) were 10.2 µM (active), 18 µM (active) and 21.7 µM (active), respectively.
As for `CC(=O)c1cc(-c2ccccc2)n(CC(=O)NC2CCCC2)c1C`, the EC50 (in assay [9]; with H4; in assay [10]) was > 120 µM (not active) throughout.
Consider `CCOC(=O)COc1cccc(C2NC(=O)c3ccccc3O2)c1` (centres undefined), for which the IC50 with H9c2 was 12.7 µM (active).
On the same count and under the same terms, to `CC(=O)Nc1cc(C)nn1-c1nc2ccccc2s1` belongs 11.6 µM (active); to `N#Cc1ccccc1OCC(=O)Nc1nc(-c2ccccn2)cs1`, > 79 µM (inactive).
Turning to `CCC(=O)OC1(C)C(=O)C=C2C=C(c3ccsc3)OC=C2C1=O` (centres undefined), the EC50 was 32.5 µM (active) in assay [3] and 34.1 µM (active) in [4].
Regarding `CC(=O)Oc1ccc(-c2cc3ccc(OC(C)=O)cc3oc2=O)cc1`, the EC50 in assay [11] was > 112 µM (not active).
In the case of `O=C(NNC(=O)c1ccccc1OCc1ccccc1Cl)c1csc(N2CCOCC2)n1`, the concentration for a half-maximal effect (EC50) with Streptococcus is > 150 µM (not active); in assay [12], 12.8 µM (active); at Streptokinase A, > 150 µM (not active). For the same molecule, the IC50 with H9c2 is 12.8 µM (active).
With `COc1cccc(C2(O)CC(C(F)(F)F)=NN2C(=O)c2ccccn2)c1` (centres undefined), the EC50 in assay [9] is 18.5 µM (active); in the assay on H4, 7.55 µM (active); in assay [10], > 120 µM (not active).
On to `COc1ccc2cc3cc(C(=O)NCCN4CCc5ccccc5C4)sc3nc2c1`, for which the results for the EC50 (in assay [9]; with H4; in assay [10]) were 6.85 µM (active), 15.1 µM (active) and 17.8 µM (active), respectively.
As for `COc1cc2c(cc1NC(=O)CSc1ccccn1)oc1ccccc12`, the EC50 in [9] is 10.9 µM (active); in the assay on H4, 30.4 µM (active); in assay [10], 15 µM (active).
Take `Sc1nc2ccccc2c2ccccc12`: the IC50 in the assay with H9c2 was 31.5 µM (inactive).
As to `O=C1c2cccc3cccc(c23)C(=O)N1Nc1ccccc1`, the IC50 in assay [1] is > 20 µM (inactive).
For the molecule `Cc1nc(-c2ccccn2)nc(S)c1Cl`, in the assay on H9c2, the IC50 is > 79 µM (inactive).

The values above are taken from ChEMBL document CHEMBL1201862, “PubChem BioAssay data set” (2004).
